Reference: publication PMC12388126, “Photochemically Assisted Synthesis of Thienobenzotriazole-Based Dual Cholinesterase Inhibitors” (Molecules, 2025)
Where two headings read alike, the source gives them in different places.

Assays:
[1] = target: acetylcholinesterase (AChE) (Electrophorus electricus, UniProt O42275); assay: AChE inhibition, modified Ellman method; format: biochemical; conditions: for inhibition at 50 µM / inhibition at 100 µM / inhibition at 250 µM: read-out: AChE Inhibition (%); for IC50: relative IC50 from nonlinear regression, tested 0.01–250 μM
Chain of acetylcholinesterase (AChE) (O42275 24-633): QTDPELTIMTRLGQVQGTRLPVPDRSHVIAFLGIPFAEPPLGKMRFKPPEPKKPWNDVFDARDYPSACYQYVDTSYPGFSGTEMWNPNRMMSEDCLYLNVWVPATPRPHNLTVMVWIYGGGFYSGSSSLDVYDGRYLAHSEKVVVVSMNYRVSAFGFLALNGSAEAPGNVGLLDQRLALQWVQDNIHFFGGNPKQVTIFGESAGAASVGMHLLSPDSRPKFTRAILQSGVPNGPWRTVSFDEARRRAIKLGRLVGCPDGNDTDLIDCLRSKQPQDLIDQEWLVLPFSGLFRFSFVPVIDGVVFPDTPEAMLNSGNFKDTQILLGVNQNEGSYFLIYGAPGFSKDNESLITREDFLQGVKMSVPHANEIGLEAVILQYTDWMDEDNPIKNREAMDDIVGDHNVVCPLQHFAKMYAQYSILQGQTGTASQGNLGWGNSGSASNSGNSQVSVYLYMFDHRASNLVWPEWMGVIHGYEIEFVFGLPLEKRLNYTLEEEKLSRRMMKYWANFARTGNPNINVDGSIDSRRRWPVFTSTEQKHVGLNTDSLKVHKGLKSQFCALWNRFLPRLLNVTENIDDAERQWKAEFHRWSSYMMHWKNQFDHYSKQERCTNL
Experimental: (§1) Building on the previously promising in vitro results of thienobenzo-1,2,3-triazolinium salts against cholinesterases, research was extended to a series of structurally related bromide salts. The inhibitory effects of a new set of triazolinium salts (1–4, 7–11, 14–17) on the activities of acetylcholinesterase (AChE) and butyrylcholinesterase (BChE) are summarized in Table 1. Their inhibitory activity was assessed using a modified Ellman method over a wide concentration range (0.01–250 μM). The IC50 values listed in Table 1 are relative IC50 values, obtained directly from the nonlinear regression analysis of the inhibition curves under defined test conditions. For reference, the inhibitory effect at the highest tested concentration is also reported. The results were compared with galantamine, a well-known cholinesterase inhibitor used in the treatment of Alzheimer’s disease.
(§2) The inhibitory effects of the new synthesized thiabenzo-1,2,3-triazolinium bromide salts, 1–4, 7–11, and 14–17, on acetylcholinesterase (AChE) and butyrylcholinesterase (BChE) activity were evaluated using the modified Ellman’s method.
(§3) DTNB, ATChI, and BTChI were prepared in 50 mM Tris buffer (pH 8.0), while the enzymes were made in 20 mM Tris buffer (pH 7.5). Using a 96-well microplate reader (Agilent, BioTek 800TS, Santa Clara, CA, USA), cholinesterase activity was assessed. Amounts of 180 μL of 50 mM Tris buffer, 10 μL of tested solutions with final concentrations ranging from 0.01 to 250 μM, and 10 μL of an enzyme with a final concentration of 0.03 U/mL were added to the microplate well, which was then left to incubate for 15 min at room temperature. Following incubation, 10 μL of DTNB (final concentration: 0.3 mM) and […] of ATChI/BTChI (final concentration: 0.5 mM) were added to the reaction mixture. After four minutes, the absorbance was measured at 405 nm. Non-enzymatic hydrolysis was assessed as a blank for the control measurement in the absence of inhibitors and enzymes. The samples were tested using the non-enzymatic hydrolysis procedure with an additional inhibitor as a blank. The enzyme was swapped out for the same amount of buffer.
(§4) The inhibition % was determined using the following formula: Inhibition (%) = [(AC − AT)/AC] × 100, where AC is the activity of the enzyme without a test sample and AT is the activity of the enzyme with a test sample. The mean values ± standard deviation are used to illustrate the results. Inhibitory activity of ethanol was deducted from each sample. A nonlinear fit of compound concentration values vs. response was used to determine the IC50 values. Each trazolinium salt was tested against both enzymes in triplicate.

[2] = target: T1, butyrylcholinesterase (BChE) (Equus caballus, UniProt P81908); assay: BChE inhibition, modified Ellman method; format: biochemical
T1 construct: BChE (extracted from equine serum); purchased Sigma-Aldrich; host or cells: equine serum (natural source)
T1 sequence (P81908 whole entry): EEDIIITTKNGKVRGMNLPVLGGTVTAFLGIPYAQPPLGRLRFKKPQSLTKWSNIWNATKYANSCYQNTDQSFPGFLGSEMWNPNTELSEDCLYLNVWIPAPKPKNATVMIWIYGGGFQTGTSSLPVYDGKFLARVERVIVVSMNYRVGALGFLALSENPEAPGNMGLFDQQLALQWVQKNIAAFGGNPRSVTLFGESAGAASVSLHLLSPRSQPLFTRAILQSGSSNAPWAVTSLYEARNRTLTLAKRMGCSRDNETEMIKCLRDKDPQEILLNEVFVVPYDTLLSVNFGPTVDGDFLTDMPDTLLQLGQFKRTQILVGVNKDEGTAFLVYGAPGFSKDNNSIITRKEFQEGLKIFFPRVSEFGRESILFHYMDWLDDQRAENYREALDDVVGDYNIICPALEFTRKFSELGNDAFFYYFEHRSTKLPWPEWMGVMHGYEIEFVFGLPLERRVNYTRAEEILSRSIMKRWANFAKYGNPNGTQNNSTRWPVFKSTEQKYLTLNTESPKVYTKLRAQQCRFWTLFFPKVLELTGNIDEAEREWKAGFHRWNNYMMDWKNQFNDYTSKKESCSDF
Experimental: as §1, §2, §3, §4

[3] = test system: LPS-induced TNF-α production; design: method as in PMID 40732321; conditions: read-out: IC50, inhibition of LPS-induced TNF-α production; cited from earlier work
[4] = test system: LPS-stimulated TNFα production in PBMCs; assay: TNFα production in LPS-stimulated PBMCs (ELISA); format: cell-based, human
Experimental: The potential anti-inflammatory activity of compounds 1–4, 7–11, and 14–17 was also evaluated in vitro by the measurement of TNFα production in LPS-stimulated PBMCs. […] At lower concentrations that were not affecting cell viability, LPS-induced TNFα production was not changed. […] Compound 17 was active only at the highest tested concentration.
The effect of compounds on tumor necrosis factor alpha (TNFα) production in lipopolysaccharide (LPS)-stimulated peripheral blood mononuclear cells (PBMCs) was evaluated as described previously. […]
(§5) For cell viability evaluation, CellTiter-Glo reagent was used (Promega, Radoboj, Croatia) according to the manufacturer’s instructions. […] TNFα concentration in supernatants was measured by ELISA using antibodies and recombinant human TNFα protein (standard) from R&D Systems. […] Finally, after the plates were incubated with streptavidin HRP (Invitrogen, Thermo Fisher Scientific, Waltham, MA, USA), chemiluminescence ELISA Substrate (Roche, Zagreb, Croatia) was added to the wells and luminescence was measured using EnVision 2105 multilabel reader (Revvity, Waltham, MA, USA). Concentrations of TNFα in the supernatants were calculated using measured luminescence by interpolation from standard curves. […]

PBMCs = assay: Cell viability of PBMCs (CellTiter-Glo); format: cell-based; conditions: LPS-stimulated PBMCs, 24 h
Experimental: The effect of compounds on tumor necrosis factor alpha (TNFα) production in lipopolysaccharide (LPS)-stimulated peripheral blood mononuclear cells (PBMCs) was evaluated as described previously. In short, PBMCs were isolated from buffy coats obtained from healthy adult volunteers and resuspended in RPMI1640 medium (Capricorn Scientific, Ebsdorfergrundu, Germany) supplemented with 10% heat-inactivated FBS (Biowest, Nuailléu, France), 1% GlutaMAX (Gibco, St. Louis, MO, USA), and 1% Antibiotic-Antimycotic (Gibco, St. Louis, MO, USA). PBMCs were seeded as 2 × 10^5 per well of a 96-well plate. […]
as §5

BChE = test system: BChE; design: method as in PMID 40732321; conditions: cited from earlier work
[5] = relative IC50 from nonlinear regression, tested 0.01–250 μM, read-out: BChE IC50

Cc1ccc(Cn2n[n+](Cc3ccc(C)cc3)c3ccc4sccc4c32)cc1 [Compound 9, 1.3-bis(4-methylbenzyl)-1H-thieno[3′,2′:3.4]benzo[1.2-d][1.2,3]triazol-3-ium bromide] gave an inhibition at 50 µM [1] of 78.7 ± 0.6%, an IC50 [1] of 5700 nM and an inhibition at 25 µM ([2]; read-out: BChE Inhibition (%)) of 76.6 ± 0.4%. The IC50 [2, 5] was 3500 nM.
In the case of Cc1ccc(Cn2n[n+](Cc3ccc([N+](=O)[O-])cc3)c3ccc4sccc4c32)cc1 [Compound 11, 1-(4-methylbenzyl)-3-(4-nitrobenzyl)-1H-thieno[3′,2′:3.4]benzo[1.2-d][1.2,3]triazol-3-ium bromide], the inhibition at 50 µM [1] is reported as 83.6 ± 2.1%, the IC50 [1] is reported as 3200 nM and the inhibition at 25 µM ([2]; read-out: BChE Inhibition (%)) is reported as 81.1 ± 1.7%. For the same compound, the IC50 [2, 5] was 2700 nM.
For Cc1ccc(C[n+]2nn(Cc3cccc(F)c3)c3c4ccsc4ccc32)cc1 [F], the IC50 [3] is given as 660 nM.
In the case of Cc1cccc(Cn2n[n+](Cc3ccccc3)c3ccc4sccc4c32)c1 [Compound 1, 3-benzyl-1-(3-methylbenzyl)-1H-thieno[3′,2′:3.4]benzo[1.2-d][1.2,3]triazol-3-ium bromide], the inhibition at 50 µM [1] is reported as 78.6 ± 0.5%, the IC50 [1] is reported as 6300 nM and the inhibition at 25 µM ([2]; read-out: BChE Inhibition (%)) is reported as 83.9 ± 0.2%. It also gave an IC50 [2, 5] of 400 nM.
Compound CC=Cn1n[n+](Cc2ccccc2)c2ccc3sccc3c21 [Compound 14, 3-benzyl-1-(prop-1-en-1-yl)-1H-thieno[3′,2′:3.4]benzo[1.2-d][1.2,3]triazol-3-ium bromide] has an inhibition at 100 µM [1] of 84.2 ± 0.5%, an IC50 [1] of 4300 nM and an IC50 [2] of 1000 nM. For the same compound, the inhibition at 25 µM ([2]; read-out: BChE Inhibition (%)) was 80.4 ± 2.9%.
C[C@@H]1C[C@H]2[C@@H]3CCC4=CC(=O)C=C[C@]4(C)[C@@]3(F)[C@@H](O)C[C@]2(C)[C@@]1(O)C(=O)CO [dexamethasone, reference compound] gave an IC50 ([4]; Homo sapiens, PBMC, PBMCs from two donors, read-out: IC50, inhibition of LPS-stimulated TNFα production) of 3.5 nM.
For Cc1ccc(Cn2n[n+](Cc3ccc(Cl)cc3)c3ccc4sccc4c32)cc1 [Compound 10, 3-(4-chlorobenzyl)-1-(4-methylbenzyl)-1H-thieno[3′,2′:3.4]benzo[1.2-d][1.2,3]triazol-3-ium bromide], the inhibition at 100 µM [1] was 81.9 ± 0.6%, the IC50 [1] was 6500 nM and the inhibition at 25 µM ([2]; read-out: BChE Inhibition (%)) was 79.9 ± 1.1%. For the same compound, the IC50 [2, 5] was 1500 nM.
For Clc1cccc(Cn2n[n+](Cc3ccc(I)cc3)c3ccc4sccc4c32)c1 [Compound 4, 1-(3-chlorobenzyl)-3-(4-iodobenzyl)-1H-thieno[3′,2′:3.4]benzo[1.2-d][1.2,3]triazol-3-ium bromide], the inhibition at 50 µM [1] was 74.6 ± 5%, the IC50 [1] was 14200 nM and the inhibition at 25 µM ([2]; read-out: BChE Inhibition (%)) was 83.2 ± 0.9%. For the same compound, the IC50 [2, 5] was 800 nM.
For COc1cccc(Cn2n[n+](Cc3ccc(Cl)cc3)c3ccc4sccc4c32)c1 [Compound 7, 3-(4-chlorobenzyl)-1-(3-methoxybenzyl)-1H-thieno[3′,2′:3.4]benzo[1.2-d][1.2,3]triazol-3-ium bromide], the inhibition at 100 µM [1] was 79.4 ± 4.9%, the IC50 [1] was 11800 nM and the inhibition at 10 µM ([2]; read-out: BChE Inhibition (%)) was 78.2 ± 0.4%. For the same compound, the IC50 [2, 5] was 1000 nM.
Work on CC=Cn1n[n+](Cc2ccc(Cl)cc2)c2ccc3sccc3c21 [Compound 16, 3-(4-chlorobenzyl)-1-(prop-1-en-1-yl)-1H-thieno[3′,2′:3,4]benzo[1,2-d][1–3]triazol-3-ium] yielded an inhibition at 250 µM [1] of 82.6 ± 1.1%, an IC50 [1] of 5400 nM and an inhibition at 100 µM ([2]; read-out: BChE Inhibition (%)) of 84.8 ± 0.8%. For the same compound, the IC50 [2, 5] was 2300 nM.
Compound Cc1ccc(C[n+]2nn(Cc3cccc(C)c3)c3c4ccsc4ccc32)cc1 [Compound 2, 1-(3-methylbenzyl)-3-(4-methylbenzyl)-1H-thieno[3′,2′:3.4]benzo[1.2-d][1.2,3]triazol-3-ium bromide] has an inhibition at 50 µM [1] of 82.1 ± 4.2%, an IC50 [1] of 4100 nM and an inhibition at 2.5 µM ([2]; read-out: BChE Inhibition (%)) of 77.6 ± 0.3%. For the same compound, the IC50 [2, 5] was 300 nM.
With CC=Cn1n[n+](Cc2ccc([N+](=O)[O-])cc2)c2ccc3sccc3c21 [Compound 17, 3-(4-nitrobenzyl)-1-(prop-1-en-1-yl)-1H-thieno[3′,2′:3,4]benzo[1,2-d][1–3]triazol-3-ium] the “classification as AChE inhibitor” value ([1]; in words) was “weak AChE inhibitor”, the inhibition at 100 µM [1] was 62.6 ± 5.3% and the IC50 [1] was 63800 nM. For the same compound, the “effect on LPS-stimulated TNFα production” value ([4]; PBMCs, starting concentration 100 µM, three-fold dilutions) was “slightly inhibited LPS-stimulated TNFα production”, the “effect on cell viability” value (PBMCs) was “no effect on cell viability” and the inhibition at 100 µM ([2]; read-out: BChE Inhibition (%)) was 85.5 ± 0.5%. It also gave an IC50 [2, 5] of 11400 nM.
For C=CCn1n[n+](Cc2ccccc2)c2ccc3sccc3c21 [E], the IC50 (BChE) is given as 98 nM.
In the case of CC=Cn1n[n+](Cc2ccc(C)cc2)c2ccc3sccc3c21 [Compound 15, 3-(4-methylbenzyl)-1-(prop-1-en-1-yl)-1H-thieno[3′,2′:3.4]benzo[1.2-d][1.2,3]triazol-3-ium], the inhibition at 250 µM [1] is reported as 82.3 ± 0.8%, the IC50 [1] is reported as 14400 nM and the inhibition at 50 µM ([2]; read-out: BChE Inhibition (%)) is reported as 84 ± 0.7%. It also gave an IC50 [2, 5] of 900 nM.
With Cc1ccc(Cn2n[n+](Cc3ccccc3)c3ccc4sccc4c32)cc1 [Compound 8, 3-benzyl-1-(4-methylbenzyl)-1H-thieno[3′,2′:3.4]benzo[1.2-d][1.2,3]triazol-3-ium bromide] the inhibition at 50 µM [1] was 80.7 ± 2.3%, the IC50 [1] was 2600 nM and the inhibition at 10 µM ([2]; read-out: BChE Inhibition (%)) was 83.6 ± 1%. It also gave an IC50 [2, 5] of 400 nM.
With Cc1cccc(Cn2n[n+](Cc3ccc(I)cc3)c3ccc4sccc4c32)c1 [Compound 3, 3-(4-iodobenzyl)-1-(3-methylbenzyl)-1H-thieno[3′,2′:3.4]benzo[1.2-d][1.2,3]triazol-3-ium bromide] the inhibition at 50 µM [1] was 76.7 ± 0.5%, the IC50 [1] was 5900 nM and the inhibition at 50 µM ([2]; read-out: BChE Inhibition (%)) was 84.9 ± 3.6%. It also gave an IC50 [2, 5] of 700 nM.
